“Also recorded” adds a separate entry of the source. Structures can show the parent of a compound that is named as a salt. Where two headings read alike, the source gives them in different places.
Assays:
Assay type in all cases: cell-based
[1] = test system: MCF-7 human breast cancer cell line; assay: cells; conditions: for IC50: read-out: Cytotoxicity, IC50, MCF-7; for Selectivity Index (SI), MCF-7: ratio of IC50 for healthy (MCF-10A) and cancer cells
in vitro = conditions: human
human erythrocytes = assay: Hemolytic activity against human erythrocytes; conditions: for HC50: Erythrocyte, read-out: ED50, Erythrocytes (hemolytic activity); for hemolytic activity (in words): concentration range up to 50 µM
Experimental: Human blood (B(III) Rh+) was used to obtain erythrocytes by centrifuging 450× g three times for 5 min with phosphate-buffered saline (PBS) (pH 7.4) at 4 °C on centrifuge LABOFUGE 400R (Heraeus, Hanau, Germany). Ice-cold PBS (pH 7.4) was used for resuspension of erythrocytes residue to a final optical density of 1.5 at 700 nm, which was kept on ice. Then, 20 µL of tested compound solution or control—djakonovioside A1 [5]—were added to 180 µL of erythrocyte suspension in V-bottom 96-well plates and exposed for 1 h at 37 °C. Next, centrifugation at 900× g for 10 min on laboratory centrifuge LMC-3000 (Biosan, Riga, Latvia), led to layers’ separation, and 100 µL of supernatant was carefully decanted and transferred into new flat-plate each. The values of erythrocyte lysis were measured on microplate photometer Multiskan FC (Thermo Fisher Scientific, Waltham, MA, USA) at λ = 570 nm as hemoglobin concentration in supernatant. The effective dose, causing lysis of 50% erythrocytes (ED50), was calculated with SigmaPlot 14.0 software. All the experiments were carried out in triple repetitions, p ≤ 0.05.

[2] = test system: T-47D human breast cancer cell line; assay: cells; conditions: for IC50: read-out: Cytotoxicity, IC50, T-47D; for Selectivity Index (SI), T-47D: ratio of IC50 for healthy (MCF-10A) and cancer cells
[3] = test system: triple-negative MDA-MB-231 human breast cancer cell line; assay: cells; conditions: for IC50: read-out: Cytotoxicity, IC50, MDA-MB-231; for Selectivity Index (SI), MDA-MB-231: ratio of IC50 for healthy (MCF-10A) and cancer cells
[4] = test system: human breast cancer cell lines MCF-7, T-47D and MDA-MB-231; assay: Cytotoxic activity (MTT assay), statements on the human breast cancer cell lines together; conditions: MCF-7, T-47D, MDA-MB-231; concentration range up to 50 µM
Excerpt: Human erythrocytes were purchased from the Station of Blood Transfusion, Vladivostok. Human mammary epithelial cell line MCF-10A CRL-10317, human breast cancer cell lines T-47D HTB-133, MCF-7 HTB-22, and MDA-MB-231 CRM-HTB-26 were received from ATCC (Manassas, VA, USA). Culturing conditions: medium of RPMI-1640 with 1% penicillin/streptomycin (Biolot, St. Petersburg, Russia) and 10% fetal bovine serum (FBS) (Biolot, St. Petersburg, Russia) for T-47D cell line; Minimum Essential Medium (MEM) with 1% penicillin/streptomycin sulfate (Biolot, St. Petersburg, Russia) and FBS (Biolot, St. Petersburg, Russia) to a final concentration of 10% for MCF-7 and MDA-MB-231 cells; DMEM/F12 medium with 10% FBS, 20 ng/mL EGF, […], 100 ng/mL cholera toxin, 10 μg/mL insulin, and 1% penicillin/streptomycin (Bioinnlabs, Russia) for MCF-10A cell line.
Methodology: to each well of 96-well plates, the cell suspension (180 µL) with solution (20 µL) of tested glycoside in the certain concentration was placed (MCF-10A, MCF-7, T-47D, and MDA-MB-231—7 × 10^3 cells per well) and incubated in the atmosphere with 5% CO2 at 37 °C for 24 h. The times of incubation of cucumarioside A2-5 (6) and djakonoviosides C1 (1) and E1 (3), at concentrations of 0.5–12.0 μM with T-47D, MCF-7, or MDA-MB-231 cells, were 24, 48, and 72 hrs. Then, the solutions of tested compounds with medium were replaced by 100 µL of fresh medium, and 10 µL of 3-(4,5-dimethylthiazol-2-yl)-2,5-diphenyltetrazolium bromide (MTT) (PanReac, AppliChem, Darmstadt, Germany) stock solution (5 mg/mL) was added to each well and incubated for 4 h, followed by the addition of 100 µL of SDS-HCl solution (1 g SDS/10 mL d-H2O/17 µL 6 N HCl) and further incubated for 18 h. Multiskan FC microplate photometer (Thermo Fisher Scientific, Waltham, MA, USA) was used to measure the absorbance of the converted dye formazan at 570 nm. The concentration caused 50% cell metabolic activity inhibition (IC50), which expresses the cytotoxic activity of each glycoside. The experiments were conducted in triplicate, p ≤ 0.05.

[5] = human erythrocytes, 1 h at 37 °C, dose causing lysis of 50% erythrocytes

Row | Compound | IC50 ([1]; Homo sapiens, MCF7, 24 h) [µM] | IC50 at 24 h (in vitro) [µM] | HC50 (human erythrocytes; [5]) [µM] | hemolytic activity (in words) (human erythrocytes; human erythrocytes) | IC50 ([2]; Homo sapiens, T47D, 24 h) [µM] | IC50 ([3]; Homo sapiens, MDA-MB-231, 24 h) [µM] | Selectivity Index (SI), MCF-7 [1] | Selectivity Index (SI), T-47D [2] | Selectivity Index (SI), MDA-MB-231 [3] | other results
1 | COC1C(O)C(COS(=O)(=O)O)OC(OC2C(O)C(COS(=O)(=O)O)OC(OC3C(C)OC(OC4C(OC5CCC6(C)C7=CCC8(C)C(C(C)=O)CCC8(C)C7CCC6C5(C)C)OCC(OS(=O)(=O)O)C4O)C(OC4OCC(O)C(O)C4O)C3O)C2O)C1O (stereo not shown) [isokoreoside A] | > 50 | > 50 | 17.4 ± 0.57 | moderate hemolytic activity; also recorded: low hemolytic activity | > 50 | > 50 | – | – | – | –
2 | C=C(C)CCCC1(C)OC(=O)C23CCC4C(=CCC5C(C)(C)C(OC6OCC(OS(=O)(=O)O)C(O)C6OC6OCC(OC7OC(CO)C(O)C(OC8OC(CO)C(O)C(OC)C8O)C7O)C(O)C6OC6OCC(O)C(O)C6O)CCC45C)C2(C)CC(OC(C)=O)C13 (stereo not shown) [djakonoviosides C1] | – | – | – | slightly lower but significant | – | – | – | – | – | –
3 | CO[C@@H]1[C@@H](O)[C@H](O[C@@H]2[C@@H](O)[C@H](O[C@H]3[C@H](O)[C@@H](O)[C@H](O[C@H]4[C@H](O[C@H]5CC[C@]6(C)[C@@H]7CCC89C(=O)O[C@@](C)(C[C@@H](O)CC(C)C)[C@H]8[C@@H](OC(C)=O)C[C@@]9(C)C7=CC[C@H]6C5(C)C)OC[C@@H](OS(=O)(=O)O)[C@@H]4O)O[C@@H]3C)OC[C@H]2O)O[C@H](CO)[C@H]1O (stereo partly shown) [djakonovioside A1, reference compound] | – | – | – | – | – | – | 0.66 | 1.15 | 1.45 | IC50 ([1]; MTT, 24 h incubation): 26.43 ± 0.14 µM; ED50, Erythrocytes (hemolytic activity) (human erythrocytes; [5]): 2.52 ± 0.23 µM; IC50 ([2]; MTT, 24 h incubation): 15.2 ± 0.96 µM; IC50 ([3]; MTT, 24 h incubation): 12.1 ± 0.54 µM
4 | COC1C(O)C(COS(=O)(=O)O)OC(OC2C(O)C(COS(=O)(=O)O)OC(OC3C(C)OC(OC4C(OC5CCC6(C)C7CCC8(C)C(C(C)=O)CCC8(C)C7=CCC6C5(C)C)OCC(OS(=O)(=O)O)C4O)C(OC4OCC(O)C(O)C4O)C3O)C2O)C1O (stereo not shown) [koreoside A] | > 50 | > 50 | > 50 | did not show hemolytic or cytotoxic activity; also recorded: complete loss of the activity | > 50 | > 50 | – | – | – | –
5 | COC1C(O)C(COS(=O)(=O)O)OC(OC2C(O)C(COS(=O)(=O)O)OC(OC3C(C)OC(OC4C(OC5CCC6(C)C7CCC8(C)C(C(C)(O)C(=O)CC=C(C)C)CCC8(C)C7=CCC6C5(C)C)OCC(OS(=O)(=O)O)C4O)C(OC4OCC(O)C(O)C4O)C3O)C2O)C1O [djakonovioside F1, 3β-O-{6-O-sodium sulfate-3-O-methyl-β-D-glucopyranosyl-(1→3)-6-O-sodium sulfate-β-D-glucopyranosyl-(1→4)-[(1→2)-β-D-xylopyranosyl]-β-D-quinovopyranosyl-(1→2)-4-O-sodium sulfate-β-D-xylopyranosyl}-(20R)-hydroxy-22-oxo-lanosta-7,24-dien] | 36.8 ± 0.73 | 23.2 ± 0.78 | – | high hemolytic effect | 22.5 ± 1.78 | 20 ± 0.63 | 0.63 | 1.02 | 1.16 | HC50 (human erythrocytes; Homo sapiens, 1 h): 0.51 ± 0.01 µM
6 | COC1C(O)C(CO)OC(OC2C(O)C(CO)OC(OC3C(CO)OC(OC4C(OC5CCC6(C)C7CCC89C(=O)OC(C)(CCC=C(C)C)C8C(OC(C)=O)CC9(C)C7=CCC6C5(C)C)OCC(OS(=O)(=O)O)C4O)C(OC4OCC(O)C(O)C4O)C3O)C2O)C1O [djakonovioside D1, 3β-O-{3-O-methyl-β-D-glucopyranosyl-(1→3)-β-D-glucopyranosyl-(1→4)-[(1→2)-β-D-xylopyranosyl]-β-D-glucopyranosyl-(1→2)-4-O-sodium sulfate-β-D-xylopyranosyl}-16β-acetoxyholosta-7,24-dien] | > 50 | > 50 | 7.74 ± 0.37 | – | > 50 | > 50 | – | – | – | hemolytic activity (in words) (human erythrocytes; human erythrocytes, listed as D1): slightly lower but significant; hemolytic activity (in words) (human erythrocytes; human erythrocytes, listed as Djakonovioside D1): moderate hemolytic activity; also recorded: slightly less hemolytic
7 | C=C(C)CCCC1(C)OC(=O)C23CCC4C(=CCC5C(C)(C)C(OC6OCC(OS(=O)(=O)O)C(O)C6OC6OC(CO)C(OC7OC(CO)C(O)C(OC8OC(CO)C(O)C(OC)C8O)C7O)C(O)C6OC6OCC(O)C(O)C6O)CCC45C)C2(C)CC(OC(C)=O)C13 (stereo not shown) [okhotoside A2-1] | 39.81 ± 0.18 | 12.2 ± 0.16 | 1.53 ± 0.14 | – | 11.9 ± 0.42 | 12.6 ± 0.16 | 0.31 | 1.03 | 0.97 | –
8 | COC1C(O)C(CO)OC(OC2C(O)C(COS(=O)(=O)O)OC(OC3C(C)OC(OC4C(OC5CCC6(C)C7CCC8(C)C(C(C)=O)CCC8(C)C7=CCC6C5(C)C)OCC(OS(=O)(=O)O)C4O)C(OC4OCC(O)C(O)C4O)C3O)C2O)C1O (stereo not shown) [cucumarioside A3-2] | – | – | 17.9 ± 0.48 | moderate hemolytic activity; also recorded: low hemolytic activity | – | – | – | – | – | IC50 ([1]; Homo sapiens, MCF7, MTT, 24 h incubation): > 50 µM; cytotoxic activity against human tumor cell lines (in words) [4]: not active; IC50 (in vitro; MTT, 24 h incubation, read-out: Cytotoxicity, IC50, MCF-10A): > 50 µM; IC50 ([2]; Homo sapiens, T47D, MTT, 24 h incubation): > 50 µM; IC50 ([3]; Homo sapiens, MDA-MB-231, MTT, 24 h incubation): > 50 µM
9 | COC1C(O)C(CO)OC(OC2C(O)C(CO)OC(OC3C(C)OC(OC4C(OC5CCC6(C)C7CCC89C(=O)OC(C)(CC=CC(C)(C)O)C8C(OC(C)=O)CC9(C)C7=CCC6C5(C)C)OCC(OS(=O)(=O)O)C4O)C(OC4OCC(O)C(O)C4O)C3O)C2O)C1O (stereo not shown) [frondoside A2-3] | > 50 | > 50 | > 50 | absence of the activity | > 50 | > 50 | – | – | – | hemolytic activity (in words) (human erythrocytes; human erythrocytes, listed as Frondoside A2-3): did not show hemolytic or cytotoxic activity
